Measurements published in paper PMC10468942, “A Fluorescent Probe as a Lead Compound for a Selective α-Synuclein PET Tracer: Development of a Library of 2-Styrylbenzothiazoles and Biological Evaluation of [^18F]PFSB and [^18F]MFSB” (ACS Omega, 2023).
“And” between values parts separate entries of the source, which are not always exact repeats. Identical values can stand only once.

biological target: T1, αSYN fibrils (Homo sapiens, UniProt P37840); test: [^3H]PiB competition binding assay on αSYN fibrils; details: Ki, αSYN [^3H]PiB competition, mean Ki ± SEM, n = 3, or single determinations
T1 construct: cloning of the DNA construct encoding full-length αSYN into the pET-22b vector; made in house; host or cells: Escherichia coli BL21
Method: Following the cloning of the DNA construct encoding full-length αSYN into the pET-22b vector and its transformation into BL21 cells, the expression of human αSYN from a prokaryotic host was induced overnight in Escherichia coli at 20 °C with 0.5 mM IPTG. The cells were harvested by centrifugation, resuspended in 20 mM Tris-HCl pH 7.6, 25 mM NaCl and 1× complete protease inhibitor (Roche, Basel, Switzerland), and lysed by sonication. […] Anion exchange chromatography (HiTrap Q, GE Healthcare, Chicago, Illinois) was used to trap the produced αSYN, which was eluted with NaCl 0.1 M over 20 column volumes. Fractions containing αSYN were concentrated and further purified through a Superdex 75 SEC column equilibrated with PBS. […] A 4 mg/mL solution of αSYN in 20 mM K3PO4 pH 9.1 was placed in an orbital shaker at 37 °C, 1000 rpm for 5 days to prepare P91s. The assemblies were either sonicated with cycles of 20 s on and 10 s off at 50% amplitude (Q800R3, Qsonica) for a total of 10 min or directly aliquoted in volumes of 10 μL each stored at −80 °C until use. […] The final products were aliquoted, frozen on dry ice, and stored at −80 °C until use.
Concentrations of αSYN and Aβ1-42 fibrils were as described above.
Plates were incubated on a shaker (MaxQ 6000, Thermo Fisher Scientific, Inc., Marietta, OH) at 50 rpm for 2 h at 37 °C, covered by removable sealing tapes (PerkinElmer, Waltham, MA). Vacuum filtration and read-out were performed as previously reported.[17] […] Data points were fitted using nonlinear regression analysis in GraphPad Prism (GraphPad Software, Inc., Version 8.4.0, La Jolla).

| Ki | SMILES |
| --- | --- |
| < 0.02 µM | C[n+]1c(C=CC=Cc2ccc(N3CCCCC3)cc2)sc2ccccc21 [14b, 3-Methyl-2-(4-(4-(piperidin-1-yl)phenyl)buta-1,3-dien-1-yl)benzo[d]thiazol-3-ium Iodide] |

same assay, conditions: methylated compounds, Table 2; two values in a cell = single determinations; read-out: Ki

| SMILES | Ki |
| --- | --- |
| C[n+]1c(/C=C/c2ccc(N3CCOCC3)cc2)sc2ccccc21 [15b, 3-Methyl-2-(4-morpholinostyryl)benzo[d]thiazol-3-ium Iodide] | > 0.4 µM |
| C[n+]1c(-c2ccc(N3CCCCC3)cc2)sc2ccccc21 [13b, 3-Methyl-2-(4-(piperidin-1-yl)phenyl)benzo[d]thiazol-3-ium] | > 0.4 µM |
| C[n+]1c(C=CC=Cc2ccc(N3CCCCC3)cc2)sc2ccccc21 [14b, 3-Methyl-2-(4-(4-(piperidin-1-yl)phenyl)buta-1,3-dien-1-yl)benzo[d]thiazol-3-ium Iodide] | 0.023 µM and 0.0168 µM |
| CN(C)c1ccc(/C=C/c2sc3ccccc3[n+]2C)cc1 [19b, 2-(4-(Dimethylamino)styryl)-3-methylbenzo[d]thiazol-3-ium Iodide] | > 0.4 µM |
| C[n+]1c(C=Cc2ccc(N3CCC(F)CC3)cc2)sc2ccccc21 [18b, 2-(4-(4-Fluoropiperidin-1-yl)styryl)-3-methylbenzo[d]thiazol-3-ium Iodide] | > 0.4 µM |
| C[n+]1c(/C=C/c2ccc(N3CCCCC3)cc2)sc2cccc(F)c21 [3b, 4-Fluoro-3-methyl-2-(4-(piperidin-1-yl)styryl)benzo[d]thiazol-3-ium 4-nitrobenzenesulfonate] | > 0.4 µM |
| C[n+]1c(C=Cc2ccc(N3CCSCC3)cc2)sc2ccccc21 [16b, 3-Methyl-2-(4-thiomorpholinostyryl)benzo[d]thiazol-3-ium Iodide] | > 0.4 µM |
| C[n+]1c(C=Cc2ccc(N3CCCC3)cc2)sc2ccccc21 [17b, 3-Methyl-2-(4-(pyrrolidin-1-yl)styryl)benzo[d]thiazol-3-ium Iodide] | 0.145 µM and 0.0586 µM |

The next lines start with the values.

| Ki | SMILES |
| --- | --- |
| 0.0275 µM and 0.163 µM | COc1ccc2sc(C=Cc3ccc(N4CCCCC4)cc3)[n+](C)c2c1 [5b, 5-Methoxy-3-methyl-2-(4-(piperidin-1-yl)styryl)benzo[d]thiazol-3-ium Iodide] |
| 0.0846 µM and 0.0599 µM | Cc1ccc2sc(C=Cc3ccc(N4CCCCC4)cc3)[n+](C)c2c1 [4b, 3,5-Dimethyl-2-(4-(piperidin-1-yl)styryl)benzo[d]thiazol-3-ium Iodide] |
| 0.234 µM and 0.177 µM | COc1cccc2c1sc(C=Cc1ccc(N3CCCCC3)cc1)[n+]2C [11b, 7-Methoxy-3-methyl-2-(4-(piperidin-1-yl)styryl)benzo[d]thiazol-3-ium Iodide] |
| 0.0168 µM and 0.0238 µM | Cc1ccc2c(c1)sc(C=Cc1ccc(N3CCCCC3)cc1)[n+]2C [7b, 3,6-Dimethyl-2-(4-(piperidin-1-yl)styryl)benzo[d]thiazol-3-ium Iodide] |
| > 0.4 µM | C[n+]1c(C=Cc2ccc(N3CCCCC3)cc2)sc2c(F)cccc21 [12b, 7-Fluoro-3-methyl-2-(4-(piperidin-1-yl)styryl)benzo[d]thiazol-3-ium Iodide] |
| 0.335 µM and 0.0436 µM | C[n+]1c(C=Cc2ccc(N3CCCCC3)cc2)sc2cc(F)ccc21 [9b, 6-Fluoro-3-methyl-2-(4-(piperidin-1-yl)styryl)benzo[d]thiazol-3-ium Iodide] |
| 0.435 µM and 0.268 µM | C[n+]1c(C=Cc2ccc(N3CCCCC3)cc2)sc2ccc(F)cc21 [6b, 5-Fluoro-3-methyl-2-(4-(piperidin-1-yl)styryl)benzo[d]thiazol-3-ium Iodide] |
| 0.231 µM and 0.0639 µM | Cc1cccc2c1sc(C=Cc1ccc(N3CCCCC3)cc1)[n+]2C [10b, 3,7-Dimethyl-2-(4-(piperidin-1-yl)styryl)benzo[d]thiazol-3-ium Iodide] |
| 0.0361 µM and 0.0839 µM | Cc1cccc2sc(/C=C/c3ccc(N4CCCCC4)cc3)[n+](C)c12 [1b, 3,4-Dimethyl-2-(4-(piperidin-1-yl)styryl)benzo[d]thiazol-3-ium 4-nitrobenzenesulfonate] |
| 0.0197 µM and 0.0096 µM | COc1ccc2c(c1)sc(C=Cc1ccc(N3CCCCC3)cc1)[n+]2C [8b, 6-Methoxy-3-methyl-2-(4-(piperidin-1-yl)styryl)benzo[d]thiazol-3-ium Iodide] |
| 0.0708 µM and 0.0343 µM | COc1cccc2sc(C=Cc3ccc(N4CCCCC4)cc3)[n+](C)c12 [2b, 4-Methoxy-3-methyl-2-(4-(piperidin-1-yl)styryl)benzo[d]thiazol-3-ium Iodide] |

same assay, conditions: nonmethylated compounds, Table 1; two values in a cell = single determinations; a: mean Ki ± SEM of three data points; b: single data point; read-out: Ki

| SMILES | Ki |
| --- | --- |
| Cc1cccc2nc(C=Cc3ccc(N4CCCCC4)cc3)sc12 [10a, 7-Methyl-2-(4-(piperidin-1-yl)styryl)benzo[d]thiazole] | > 0.4 µM |
| COc1ccc2nc(C=Cc3ccc(N4CCCCC4)cc3)sc2c1 [8a, 6-Methoxy-2-(4-(piperidin-1-yl)styryl)benzo[d]thiazole] | 0.11 µM and 0.103 µM |
| Fc1cccc2sc(C=Cc3ccc(N4CCCCC4)cc3)nc12 [3a, 4-Fluoro-2-(4-(piperidin-1-yl)styryl)benzo[d]thiazole] | 0.187 µM and 0.11 µM |
| FC1CCN(c2ccc(C=Cc3nc4ccccc4s3)cc2)CC1 [18a, 2-(4-(4-Fluoropiperidin-1-yl)styryl)benzo[d]thiazole] | 0.0998 ± 0.0326 µM |
| CN(C)c1ccc(C=Cc2nc3ccccc3s2)cc1 [19a, 4-(2-(Benzo[d]thiazol-2-yl)vinyl)-N,N-dimethylaniline] | > 0.4 µM |
| Fc1ccc2sc(C=Cc3ccc(N4CCCCC4)cc3)nc2c1 [6a, 5-Fluoro-2-(4-(piperidin-1-yl)styryl)benzo[d]thiazole] | 0.169 µM and 0.124 µM |
| C(=Cc1nc2ccccc2s1)c1ccc(N2CCSCC2)cc1 [16a, 2-(4-Thiomorpholinostyryl)benzo[d]thiazole] | 0.219 µM and 0.0586 µM |
| Fc1cccc2nc(C=Cc3ccc(N4CCCCC4)cc3)sc12 [12a, 7-Fluoro-2-(4-(piperidin-1-yl)styryl)benzo[d]thiazole] | 0.283 µM |
| COc1ccc2sc(C=Cc3ccc(N4CCCCC4)cc3)nc2c1 [5a, 5-Methoxy-2-(4-(piperidin-1-yl)styryl)benzo[d]thiazole] | 0.128 µM and 0.188 µM |
| Cc1cccc2sc(C=Cc3ccc(N4CCCCC4)cc3)nc12 [1a, 4-Methyl-2-(4-(piperidin-1-yl)styryl)benzo[d]thiazole] | 0.0712 µM and 0.198 µM |
| Cc1ccc2nc(C=Cc3ccc(N4CCCCC4)cc3)sc2c1 [7a, 6-Methyl-2-(4-(piperidin-1-yl)styryl)benzo[d]thiazole] | 0.23 µM and 0.218 µM |
| Cc1ccc2sc(C=Cc3ccc(N4CCCCC4)cc3)nc2c1 [4a, 5-Methyl-2-(4-(piperidin-1-yl)styryl)benzo[d]thiazole] | 0.233 µM and 0.0881 µM |
| C(=Cc1nc2ccccc2s1)c1ccc(N2CCCCC2)cc1 [compound 20, 2-(4-(Piperidin-1-yl)styryl)benzo[d]thiazole] | 0.17 µM and 0.0335 µM |

Next, values leading:

| Ki | SMILES |
| --- | --- |
| > 0.4 µM | COc1cccc2nc(C=Cc3ccc(N4CCCCC4)cc3)sc12 [11a, 7-Methoxy-2-(4-(piperidin-1-yl)styryl)benzo[d]thiazole] |
| > 0.4 µM | COc1cccc2sc(C=Cc3ccc(N4CCCCC4)cc3)nc12 [2a, 4-Methoxy-2-(4-(piperidin-1-yl)styryl)benzo[d]thiazole] |
